Test results taken from patent publication US20040072738A1, “Analogues of thiocoraline and be-22179” (priority 2000, published 2004).
In brackets after ≈: the same amount, converted by molar mass. Bridge positions count the residues as written; N and C are the ends. Square brackets hold non-standard residues; d marks the D form. Peptide text beside a SMILES is read from it. I, II: the chains in the order shown. * marks the point of attachment. Quinaldoyl(3-OH) = O=C(c1nc2ccccc2cc1O)*; NMeC = CN[C@@H](CS)C(=O)O

Assays:
supercoiled ΦX174 DNA = experiment: unwinding and rewinding of negatively supercoiled DNA, agarose gel electrophoresis; assay type: biochemical
Source text: Confirmation that thiocoraline and BE-22179 bind to DNA with bisintercalation was derived from their ability to induce the unwinding of negatively supercoiled DNA. This was established by their ability to gradually decrease the agarose gel electrophoresis mobility of supercoiled ΦX174 DNA (unwinding) at increasing concentrations followed by a return to normal mobility (rewinding) at even higher concentrations. Under the conditions employed, echinomycin unwound ΦX174 DNA at a 0.044 agent/base pair ratio (FIG. 11 and FIG. 12). Thiocoraline completely unwound ΦX174 DNA at a higher 0.11 agent/base pair ratio, whereas BE-22179 required even higher concentrations producing the unwinding at an agent/base pair ratio of 1.1. […] Thus, the distinctions in 1 and 2 and echinomycin detected here appear to be related to the nature of the cyclic depsipeptide and not the structure of the chromophore.
FIG. 8 is a table of comparative DNA binding properties. ^aCalf thymus DNA, KB=apparent binding constant determined by fluorescence quenching. The value in paren-theses is the agent/base pair ratio at saturated high-affinity binding and may be considered a measure of the selectivity of binding. ^bAgent/base pair ratio required to unwind negatively supercoiled FX174 DNA (form I to form II gel mobility, 0.9% agarose gel). ^cAgent/base pair ratio required to induce complete rewinding or positive super-coiling of FX174 DNA (form II to form I gel mobility, 0.9% agarose gel). ^dBinding constant established by footprinting at a 5′-CCGC site (FIG. 9).
(A) Lane 1, untreated supercoiled FX174 DNA, 95% form 1 and 5% form II; lanes 2-8, thiocoraline-treated FX174 DNA; lanes 9-14, echinomycin-treated FX174 DNA. The [agent]-to-[base pair] ratios were 0.022 (lanes 2 and 9), 0.033 (lanes 3 and 10), 0.044 (lanes 4 and 11), 0.066 (lanes 5 and 12), 0.11 (lanes 6 and 13), 0.22 (lanes 7 and 14), and 0.44 (lane 8). (B) Lane 1, untreated supercoiled FX174 DNA, lanes 2-12, BE-22179-treated FX174 DNA. The [agent]-to-[base pair] ratios were 0.022, (lane 2), 0.033 (lane 3), 0.044 (lane 4), 0.066 (lane 5), 0.11 (lane 6), 0.22 (lane 7), and 0.33 (lane 8), 0.44 (lane 9), 0.66 (lane 10), 1.1 (lane 11), and 2.2 (lane 12). (C) Lane 1, untreated supercoiled FX174 DNA, 95% form 1 and 5% form II; lanes 2-8, thiocoraline analogue (27)-treated FX174 DNA. The [agent]-to-[base pair] ratios were 0.022 (lane 2), 0.033 (lane 3), 0.044 (lane 4), 0.066 (lane 5), 0.11 (lane 6), 0.22 (lane 7), and 0.44 (lane 8).

[1] = test system: duplex deoxyoligonucleotides, 5′-GCXXGC-3′ where XX=TA, AT, GC, CG; experiment: fluorescence quenching titration with duplex deoxyoligonucleotides; settings: high-affinity binding, listed as 1
Source text: Consequently, the binding of 1 was examined with a set of four duplex deoxyoligonucleotides, 5′-GCXXGC-3′ where XX=TA, AT, GC, CG, incorporating the high affinity intercalation sites of the related bisintercalatiors echinomycin (5′-PuCGPy) (Corbaz, R., et al., Helv. Chim. Acta 1957, 40, 199; Keller-Schierlein, W., et al., Helv. Chim. Acta 1957, 40, 205; Keller-Schierlein, W., et al., Helv. Chim. Acta 1959, 42, 305; Martin, D. G., et al., J. Antibiot. 1975, 28, 332; Dell, A., et al., J. Am. Chem. Soc. 1975, 97, 2497), sandramycin (5′-CATG) (Boger, D. L., et al., Bioorg. Med. Chem. 1999, 7, 315; Boger, D. L., et al., Bioorg. Med. Chem. 1998, 6, 85), and the luzopeptins (5′-CATG) (Isolation: Konishi, M., et al., J. Antibiot. 1981, 34, 148; Structure and stereochemistry: Arnold, E., et al., J. Am. Chem. Soc. 1981, 103, 1243. Total synthesis (luzopeptins A-C): Boger, D. L., et al., J. Am. Chem. Soc. 1999, 121, 1098; Boger, D. L., et al., J. Am. Chem. Soc. […] The excitation and emission spectra for thiocoraline and BE-22179 were recorded in aqueous buffer (Tris-HCl, pH 7.4, 75 mM NaCl). To minimize fluorescence decrease due to dissolution or photobleaching, the solutions were stirred in 4-mL cuvettes in the dark with the minimum exposure to the excitation beam necessary to obtain a reading. […]

w794 DNA = experiment: DNase I and MTE footprinting; assay type: binding
Description: FIG. 9 is an electrophoresis gel of DNase footprinting of echinomycin bound to w794 DNA. Lane 13, G, C and A Sanger sequencing reactions; lane 4, native DNA; lane 5, control DNA without treatment of DNase I; lanes 6-14; 0, 10, 20, 40, 60, 80, 100, 120, and […] echinomycin with DNase I treatment (1 min).
FIG. 10 is an electrophoresis gel of DNase footprinting of thiocoraline bound to w794 DNA. Lane 1, native DNA; lane 2, control DNA without treatment of DNase I; lanes 3-6, G, C, A, and T Sanger sequencing reactions; lanes 7-26; 0, 10, 25, 50, 75, 100, 150, 200, 250, 300, 350, 400, 450, 500, 600, 700, 800, 900, 1000, and […] thiocoraline with DNase I treatment (1 min).

[2] = solubility in aqueous buffer; assay type: physicochemical; settings: aqueous Tris-HCl buffer; Tris-HCl pH 7.4, 75 mM NaCl; read-out: agent concentrations where the compounds are soluble

CSC[C@H]1C(=O)SC[C@@H](NC(=O)c2nc3ccccc3cc2O)C(=O)NCC(=O)N(C)[C@H]2CSSC[C@@H](C(=O)N1C)N(C)C(=O)CNC(=O)[C@H](NC(=O)c1nc3ccccc3cc1O)CSC(=O)[C@H](CSC)N(C)C2=O [Thiocoraline] (I: {Quinaldoyl(3-OH)}-[dC]G[NMeC][NMeC](Me) / II: {Quinaldoyl(3-OH)}-[dC]G[NMeC][NMeC](Me); thioester I:1-II:C, I:C-II:1; disulfide I:3-II:3)
agent/base pair ratio required to unwind supercoiled DNA (supercoiled ΦX174 DNA; form I to form II gel mobility): 0.11 agent/base pair ratio | agent/base pair ratio for complete rewinding of supercoiled DNA (supercoiled ΦX174 DNA; form II to form I gel mobility): 0.44 agent/base pair ratio | binding constants for the four deoxyoligonucleotides [1]: 3-7×10^6 M^−1 | selectivity of DNA binding by footprinting (w794 DNA): failed to reveal a distinguishable selectivity | solubility [2]: 1 to 10 µM (≈ 1.16 to 11.6 µg/mL)
